Test results as given in patent US8809333B2, “Imidazole, pyrazole, and triazole derivatives useful as antibacterial agents” (Pfizer Inc., priority 2011, dated 2014).
In brackets after ≈: the same amount, converted by molar mass. Where two headings read alike, the source gives them in different places.

Key:
[1] = biological target: T1, Pseudomonas aeruginosa LpxC enzyme (Pseudomonas aeruginosa, UniProt P47205); assay: IC50 assay, LpxC enzyme from P. aeruginosa (BioTrove RapidFire mass spectrometry); format: biochemical
T1 construct: made in house; host or cells: E. coli
T1 sequence (P47205 1-303): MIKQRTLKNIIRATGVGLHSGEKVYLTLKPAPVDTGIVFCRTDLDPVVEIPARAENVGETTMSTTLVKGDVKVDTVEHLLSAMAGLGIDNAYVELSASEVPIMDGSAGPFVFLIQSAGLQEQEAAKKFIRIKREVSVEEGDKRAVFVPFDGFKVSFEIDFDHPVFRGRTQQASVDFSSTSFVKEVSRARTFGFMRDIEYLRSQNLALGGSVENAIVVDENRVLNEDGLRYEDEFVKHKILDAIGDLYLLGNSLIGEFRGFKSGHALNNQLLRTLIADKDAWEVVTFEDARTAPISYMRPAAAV
Procedure: In order to assess the compounds biological activity, selected in-vitro assays were conducted on selected compounds of Formula I. One of the assays measured the compounds ability to disrupt the synthesis of lipopolysaccharide, LPS, which is a component of the outer membrane of Gram-negative bacteria. Disruption of this synthesis is lethal to the bacteria. The assay determined the compound's ability to inhibit LpxC, which is the first enzyme in the biosynthetic pathway for LPS (measured as IC50). Additionally, MICs (minimal inhibitory concentrations) were determined for several bacteria. The specific protocols are described below:
A) IC50 Assay, LpxC Enzyme from P. Aeruginosa Labeled as PA LpxC Enzyme IC50):
At the end of 1 hour, 5 ul of 1 N HCl was added to stop the enzyme reaction, the plates were centrifuged, and then processed with the BioTrove Rapidfire HTMS Mass Spectrometry System. A no-enzyme control was used in calculating the IC50 values from the percent conversion values.

[2] = tested on: Acinetobacter baumannii/haemolyticus: Multidrug-resistant clinical isolate (AB-3167); assay: MIC determination (CLSI), AB-3167; format: cell-based; settings: Acinetobacter baumannii/haemolyticus multidrug-resistant clinical isolate; overnight incubation; lower of duplicate values; read-out: AB-3167 (MIC)
Procedure: (§1) The in vitro antibacterial activity of compounds described in the Examples was evaluated by minimum inhibitory concentration (MIC) testing according to Clinical and Laboratory Standards Institute (CLSI) Guidelines. See: Clinical and Laboratory Standards Institute. Methods for Dilution Antimicrobial Susceptibility Tests for Bacteria that Grow Aerobically; Approved Standard-Eighth Edition. CLSI document M7-A8 [ISBN 1-56238-689-1]. Clinical and Laboratory Standards Institute, 940 West Valley Road, Suite 1400, Wayne, Pa. 19087-1898 USA, 2006; also Clinical and Laboratory Standards Institute. Performance Standards for Antimicrobial Susceptibility Testing; Twentieth Informational Supplement. CLSI document M100-S20 [ISBN1-56238-716-2]. Clinical and Laboratory Standards Institute.
(§2) The MIC determination is a standard laboratory method for evaluating the antibacterial activity of a compound. The MIC represents the lowest drug concentration that inhibits visible growth of bacteria following overnight incubation. […] Typically, the drug concentration range is broken down into 2-fold increments (e.g. 0.06 μg/mL, 0.12 μg/mL. 0.25 μg/mL, 0.50 μg/mL, 1.0 μg/mL, etc.) and the various drug concentrations are all individually incubated overnight with approximately the same number of bacteria. The MIC is then determined by visually inspecting the drug effect at each concentration, and identifying the lowest drug concentration that has inhibited bacterial growth as compared to the drug free control. Typically, bacteria continue to grow at drug concentrations lower than the MIC and don't grow at concentrations at and above the MIC.
(§3) The MIC values described in Tables 2 and 3 below were derived from assays wherein each test compound was evaluated in duplicate. In cases where the duplicate values varied by 0-2-fold, the lower of the two values was reported below. Generally speaking, if the duplicate values varied by more than 2-fold, the assay was considered non-valid and was repeated until the variation between duplicate runs was ≦2-fold. In line with the CLSI guidelines referred to above, both control organisms and reference compounds were utilized in each MIC assay to provide proper quality control. MIC values generated with these control organisms and reference compounds were required to fall within a defined range for the assay to be considered valid and be included herein. Those skilled in the art will recognize that MIC values can and do vary from experiment to experiment. Generally speaking, it should be recognized that MIC values often vary +/−2-fold from experiment to experiment. While a single MIC is reported for each compound and each microorganism, the reader should not conclude that each compound was only tested once. Several of the compounds were subjected to multiple tests. The data reported in Tables 2 and 3 is reflective of the compounds relative activity and different MICs may have been generated on these occasions in line with the guidelines described above.
(§4) The following bacterial strains were used in these MIC determinations:
(1) Acinetobacter baumannii/haemolyticus: Multidrug-resistant clinical isolate labeled as AB-3167 in Table 5;

[3] = tested on: Escherichia coli EC-1: VOGEL, mouse virulent; assay: MIC determination (CLSI), EC-1; format: cell-based; settings: Escherichia coli, read-out: EC-1 (MIC)
Procedure: as §1, §2, §3, §4
(2) Escherichia coli EC-1: VOGEL, mouse virulent labeled as EC-1 in Table 5;

[4] = tested on: Klebsiella pneumoniae: Ciprofloxacin-resistant isolate, expresses ESBL, clinical isolate (KP-3700); assay: MIC determination (CLSI), KP-3700; format: cell-based; settings: overnight incubation, lower of duplicate values
Procedure: as §1, §2, §3, §4
(3) Klebsiella pneumoniae: Ciprofloxacin-resistant isolate, expresses extended-spectrum beta-lactamases (ESBL), clinical isolate, labeled as KP-3700 in Table 5.

[5] = tested on: Pseudomonas aeruginosa UI-18: Wild-type (PA-7); assay: MIC determination (CLSI), PA-7; format: cell-based; settings: Pseudomonas aeruginosa UI-18 wild-type; overnight incubation; lower of duplicate values; read-out: PA-7 (MIC)
Procedure: as §1, §2, §3, §4
(4) Pseudomonas aeruginosa UI-18: Wild-type, labeled as PA-7 in Table 5;

[6] = P. aeruginosa LpxC enzyme 0.1 nM, 25° C., 1 hour, pH 8.0, read-out: PA: IC50

| Structure (SMILES) | IC50 [1, 6] [nM] | MIC [2] [µg/mL] | MIC [3] [µg/mL] | KP-3700 (MIC) [4] [µg/mL] | MIC [5] [µg/mL] | IC50 [1] [nM] |
| --- | --- | --- | --- | --- | --- | --- |
| CC(CCn1cc(CSc2cccc(Cl)c2)nn1)(C(=O)NO)S(C)(=O)=O (stereo not shown) [Example 27, 4-(4-{[(3-chlorophenyl)sulfanyl]methyl}-1H-1,2,3-triazol-1-yl)-N-hydroxy-2-methyl-2-(methylsulfonyl)butanamide] | 12.2 | > 64 | > 64 | >64.0 | 64 (≈ 153 µM) |  |
| CC(CCn1cc(-c2ccc3cnc(N)cc3c2)cn1)(C(=O)NO)S(C)(=O)=O (stereo not shown) [Example 69, 4-[4-(3-aminoisoquinolin-6-yl)-1H-pyrazol-1-yl]-N-hydroxy-2-methyl-2-(methylsulfonyl)butanamide] | 2.57 | > 64 | > 64 | >64.0 | > 64 |  |
| Cc1cc(-c2ccc(-c3cnn(CCC(C)(C(=O)NO)S(C)(=O)=O)c3)cc2)[nH]n1 (stereo not shown) [Example 84, N-hydroxy-2-methyl-4-{4-[4-(3-methyl-1H-pyrazol-5-yl)phenyl]-1H-pyrazol-1-yl}-2-(methylsulfonyl)butanamide] | 6.44 | > 64 | 16 (≈ 38.3 µM) | >64.0 | 64 (≈ 153 µM) |  |
| CC(CCn1cc(-c2ccc(-c3cc[nH]n3)cc2)cn1)(C(=O)NO)S(C)(=O)=O (stereo not shown) [Example 70, N-hydroxy-2-methyl-2-(methylsulfonyl)-4-{4-[4-(1H-pyrazol-3-yl)phenyl]-1H-pyrazol-1-yl}butanamide] | 4.11 | > 64 | 64 (≈ 159 µM) | >64.0 | 32 (≈ 79.3 µM) |  |
| CC(CCn1cc(-c2ccccc2Br)nn1)(C(=O)NO)S(C)(=O)=O (stereo not shown) [Example 38, 4-[4-(2-bromophenyl)-1H-1,2,3-triazol-1-yl]-N-hydroxy-2-methyl-2-(methylsulfonyl)butanamide] | 18.9 | > 64 | 16 (≈ 38.3 µM) | >64.0 | 32 (≈ 76.7 µM) |  |
| C[C@@](CCn1cc(C2CCCCC2)cn1)(C(=O)NO)S(C)(=O)=O [Example 2, (2R)-4-(4-cyclohexyl-1H-pyrazol-1-yl)-N-hydroxy-2-methyl-2-(methylsulfonyl)butanamide] | 0.752 | > 64 | 32 (≈ 93.2 µM) | 64 | 1 (≈ 2.91 µM) |  |
| CCc1ccccc1SCc1cn(CCC(C)(C(=O)NO)S(C)(=O)=O)nn1 (stereo not shown) [Example 32, 4-(4-{[(2-ethylphenyl)sulfanyl]methyl}-1H-1,2,3-triazol-1-yl)-N-hydroxy-2-methyl-2-(methylsulfonyl)butanamide] | 50.9 | > 64 | > 64 | >64.0 | > 64 |  |
| CC(CCn1cc(-c2ccc(-c3csnn3)cc2)cn1)(C(=O)NO)S(C)(=O)=O (stereo not shown) [Example 90, N-hydroxy-2-methyl-2-(methylsulfonyl)-4-{4-[4-(1,2,3-thiadiazol-4-yl)phenyl]-1H-pyrazol-1-yl}butanamide] | 1.23 | > 64 | 16 (≈ 38 µM) | 64 | 4 (≈ 9.49 µM) |  |
| Cc1cccc(-c2cnn(CCC(C)(C(=O)NO)S(C)(=O)=O)c2)c1 (stereo not shown) [Example 42, N-hydroxy-2-methyl-4-[4-(3-methylphenyl)-1H-pyrazol-1-yl]-2-(methylsulfonyl)butanamide] | 6.2 | > 64 | 64 (≈ 182 µM) | >64.0 | 4 (≈ 11.4 µM) |  |
| CC(CCn1cc(-c2cccc(-c3cc[nH]n3)c2)cn1)(C(=O)NO)S(C)(=O)=O (stereo not shown) [Example 71, N-hydroxy-2-methyl-2-(methylsulfonyl)-4-{4-[3-(1H-pyrazol-3-yl)phenyl]-1H-pyrazol-1-yl}butanamide] | 5.12 | > 64 | > 64 | >64.0 | > 64 |  |
| C[C@@](CCn1cc(-c2ccccc2)nn1)(C(=O)NO)S(C)(=O)=O [Example 14, (2R)—N-hydroxy-2-methyl-2-(methylsulfonyl)-4-(4-phenyl-1H-1,2,3-triazol-1-yl)butanamide] |  | > 64 | 32 (≈ 94.6 µM) | 32 | 2 (≈ 5.91 µM) | 0.85 |
| CC(CCn1cc(-c2ccc(Cl)cc2)nn1)(C(=O)NO)S(C)(=O)=O (stereo not shown) [Example 26, 4-[4-(4-chlorophenyl)-1H-1,2,3-triazol-1-yl]-N-hydroxy-2-methyl-2-(methylsulfonyl)butanamide] | 2.87 | > 64 | 32 (≈ 85.8 µM) | 32 | 4 (≈ 10.7 µM) |  |
| C[C@@](CCn1cc(-c2ccc(Cl)cc2F)nn1)(C(=O)NO)S(C)(=O)=O [Example 24, (2R)-4-[4-(4-chloro-2-fluorophenyl)-1H-1,2,3-triazol-1-yl]-N-hydroxy-2-methyl-2-(methylsulfonyl)butanamide] |  | > 64 | 2 (≈ 5.12 µM) | 4 | 1 (≈ 2.56 µM) | 0.657 |
| CC(CCn1cc(COc2cccc3ccccc23)nn1)(C(=O)NO)S(C)(=O)=O (stereo not shown) [Example 34, N-hydroxy-2-methyl-2-(methylsulfonyl)-4-{4-[(naphthalen-1-yloxy)methyl]-1H-1,2,3-triazol-1-yl}butanamide] | 26.3 | > 64 | > 64 | >64.0 | > 64 |  |
| C[C@@](CCn1cc(-c2cnc3ccccc3n2)cn1)(C(=O)NO)S(C)(=O)=O [Example 9, (2R)—N-hydroxy-2-methyl-2-(methylsulfonyl)-4-[4-(quinoxalin-2-yl)-1H-pyrazol-1-yl]butanamide] | 19 | > 64 | > 64 | >64.0 | > 64 |  |
| C[C@@](CCn1cc(C2CCCC2)cn1)(C(=O)NO)S(C)(=O)=O [Example 3, (2R)-4-(4-cyclopentyl-1H-pyrazol-1-yl)-N-hydroxy-2-methyl-2-(methylsulfonyl)butanamide] | 14.3 | 64 (≈ 194 µM) | 64 (≈ 194 µM) | 64 | 8 (≈ 24.3 µM) |  |
| Cc1nn(CC[C@](C)(C(=O)NO)S(C)(=O)=O)cc1-c1ccccc1 [Example 4, (2R)—N-hydroxy-2-methyl-4-(3-methyl-4-phenyl-1H-pyrazol-1-yl)-2-(methylsulfonyl)butanamide] | 14.6 | > 64 | 8 (≈ 22.8 µM) | 32 | 8 (≈ 22.8 µM) |  |
